Data: patent publication US20180179499A1, “BIOBASED PRODUCTION OF FUNCTIONALIZED ALPHA-SUBSTITUTED ACRYLATES AND C4-DICARBOXYLATES” (BIOAMBER INC., priority 2015, published 2018)

Key:
[1] = tested on: potential yeast hosts (I. orientalis, S. cerevisiae); experiment: Tolerance of potential yeast hosts: maximum concentration in which growth was detected; assay type: cell-based
Protocol: (§1) Two eukaryotic strains, I. orientalis and S. cerevisiae, were tested at pH 3 and pH 5. Three bacterial strains were tested using their individual optimal conditions. E. coli and C. glutamicum were tested at pH 8 and 30° C., and B. firmus was tested at pH 9 and 37° C. I. orientalis was grown in defined yeast media consisting of 5 g/L ammonium sulfate, 0.5 g/L magnesium sulfate heptahydrate, 3 g/L potassium phosphate monobasic, 10 g/L dextrose, 1 mL/L of 10% glycerol stock, 1 mL/L of 1000× trace. The 1000× trace stock solution contains 4 g/L ZnSO4.7H2O, 2 g/L FeSO4.7H2O, 1 g/L MnSO4.H2O, 0.2 g/L CuSO4.5H2O, and 0.8 mL/L H2SO4. S. cerevisiae was grown in buffered defined dextrose media consisting of 50 g/L dextrose, 5 g/L yeast extract, and 40 mL/L 25× DM salts. The 25× DM salt stock solution contains 125 g/L ammonium sulfate, 12.5 g/L magnesium sulfate heptahydrate, 75 g/L potassium phosphate monobasic, and 787.5 g/L water. The bacterial strains were grown in standard LB media consisting of 10 g/L bacto-tryptone, 5 g/L yeast extract, 10 g/L NaCl, and 20 g/L dextrose with addition of 20 g/L glucose.
(§2) Time points were taken over a period of at least 8 hours and up to 24 hours to calculate the rate of growth. Specific growth rate was determined by plotting the natural logarithm of cell number against time. Tolerance was determined by growth rate of cells in the presence of the compound as compared to in the absence of the compound.
(§3) Two eukaryotic strains, I. orientalis and S. cerevisiae, were tested for tolerance to the selected compounds at pH 3 and pH 5. The bacterial strains were grown at their individual optimal conditions, E coli and C. glutamicum at pH 8 and 30° C., and B. firmus and B. cohnii at pH 9 and 37° C. I. orientalis was grown in defined yeast media consisting of 5 g/L ammonium sulfate, 0.5 g/L magnesium sulfate heptahydrate, 3 g/L potassium phosphate monobasic, 10 g/L dextrose, 1 mL/L of 10% glycerol stock, 1 mL/L of 1000× trace. The 1000× trace stock solution contains 4 g/L ZnSO4.7H2O, 2 g/L FeSO4.7H2O, 1 g/L MnSO4.H2O, 0.2 g/L CuSO4.5H2O, and 0.8 mL/L H2SO4. S. cerevisiae was grown in buffered defined dextrose media consisting of 50 g/L dextrose, 5 g/L yeast extract, and 40 mL/L 25×DM salts. The 25×DM salt stock solution contains 125 g/L ammonium sulfate, 12.5 g/L magnesium sulfate heptahydrate, 75 g/L potassium phosphate monobasic, and 787.5 g/L water. The bacterial strains were grown in standard LB media consisting of 10 g/L bacto-tryptone, 5 g/L yeast extract, 10 g/L NaCl, and 20 g/L dextrose with addition of 20 g/L glucose.
as §2

[2] = tested on: potential bacterial hosts (E. coli, C. glutamicum, B. firmus, B. cohnii); experiment: Tolerance of potential bacterial hosts: highest concentration with growth observed; assay type: cell-based; conditions: Table L
Protocol: as §1, §2, §3, §2

[3] = Synthase activity assay (DTNB, lysates of BL21 E. coli expressing the candidate); assay type: biochemical; conditions: 0.5 mM hydroxypyruvate
Protocol: E coli optimized genes encoding synthases were synthesized and cloned into pTrcHisA (Life Technologies (formerly Invitrogen)). Synthase genes tested are found in Table G. Plasmids containing the optimized synthase genes were transformed into BL21 E. coli cells. Empty plasmid pTrcHisA was also transformed as a negative control. […]. Flasks were incubated at 30° C. at 250 rpm shaking for 2 hours, then protein production was induced with 0.2 mM IPTG and incubated for 4 more hours at 30° C. while shaking. Cells were harvested by centrifugation and pellets were stored at −80° C.
Activity of synthase candidates was assessed with an in vitro assay using DTNB (5,5′-Dithiobis(2-nitrobenzoic acid)) as an indicator. The enzyme activity was tested using either no substrate or hydroxypyruvate as the substrate. The DTNB interacts with the free thio created by the condensation of acetyl-CoA and the substrate present. Unless otherwise specified, all chemicals were purchased from Sigma-Aldrich Chemical Company, St. Louis, Mo.
Cells were lysed using mechanical disruption using a BeadBeater (BopSpec products, Bartlesville, Okla.) following the manufacturer's instructions. The cell lysate was partially clarified by centrifugation (14,000G for 5 minutes). Protein concentrations of the resulting clarified lysates were measured via BioRad total Protein assay using the manufacturer's instructions. Lysates were normalized by protein concentration in 100 mM Tris buffer. The normalized lysates were diluted 1 to 7 in 100 mM Tris buffer. 20 μl of lysate was added to each well for the 96-well plate assay. Each condition was performed in triplicate.
The reaction mixture contains 100 mM Tris pH 7.4, 5 mM MgSO4, 0.2 mM acetyl-CoA, 0.5 mM DTNB, 0.5 mM substrate, hydroxypyruvate. To start the reaction, 180 μl of reaction mix was added to each well already containing 20 μl lysate. The reactions in these microplates were monitored at 412 nm. Readings were taken every 9 seconds for 10 minutes and the data was used to calculate activities of each enzyme. Synthase activity was observed when hydroxypyruvate was the substrate as compared to cells containing empty vector (FIG. 20(a), Table G). Background absorbance as measured by the same reaction with no substrate present were subtracted. Error bars in the graphs reflect the standard deviations calculated for the averages for each condition performed in triplicate. Specific mutations change the activity of the enzymes tested (FIG. 20(b), Table H). Further enzyme engineering will improve specificity and activity of desired enzymatic reaction.

[4] = Table G, 0.2 mM acetyl-CoA, pH 7.4, no-substrate background subtracted
[5] = Table H, wild type and mutant synthases

Molecule | Max conc (maximum concentration in which growth was detected) ([1]; Table K) [g/L] | Max conc (maximum concentration in which growth was detected) [2] [g/L] | also measured
C=CC(=O)OCCO [Hydroxyethyl acrylate] | 5 | 20 | –
CC(C)C(C(=O)O)C(O)C(=O)O (stereo not shown) [3-isopropylmalic acid] | – | – | Max conc (maximum concentration in which growth was detected) ([1]; Table E): 50 g/L
C=CC(=O)OCO [Hydroxymethyl acrylate] | 20 | 20 | –
CC(C)C(O)(CC(=O)O)C(=O)O (stereo not shown) [2-isopropylmalic acid] | – | – | Max conc (maximum concentration in which growth was detected) ([1]; Table E): 50 g/L
Methyl hydroxyethyl acrylate | 5 | 20 | –
AvNifV: candidate synthase NifV, Azotobacter vinelandii, GenBank AAA22169 | – | – | Activity with hydroxy pyruvate [3, 4]: 0.054 µmol/min/mg
C=C1CCOC1=O [MBL] | 5 | 5 | –
C=C1CC(C)OC1=O (stereo not shown) [MeMBL, methyl 2-methylene 4 butyrolactone] | 5 | 5 | –
C=C(CO)C(=O)OCC [Ethyl hydroxymethyl acrylate] | 20 | – | –
EcLeuA: candidate synthase LeuA, Escherichia coli, GenBank AAC73185 (protein, UniProt P09151 2-523, looked up) 2-isopropylmalate synthase: SQQVIIFDTTLRDGEQALQASLSVKEKLQIALALERMGVDVMEVGFPVSSPGDFESVQTIARQVKNSRVCALARCVEKDIDVAAESLKVAEAFRIHTFIATSPMHIATKLRSTLDEVIERAIYMVKRARNYTDDVEFSCEDAGRTPIADLARVVEAAINAGATTINIPDTVGYTMPFEFAGIISGLYERVPNIDKAIISVHTHDDLGLAVGNSLAAVHAGARQVEGAMNGIGERAGNCSLEEVIMAIKVRKDILNVHTAINHQEIWRTSQLVSQICNMPIPANKAIVGSGAFAHSSGIHQDGVLKNRENYEIMTPESIGLNQIQLNLTSRSGRAAVKHRMDEMGYKESEYNLDNLYDAFLKLADKKGQVFDYDLEALAFIGKQQEEPEHFRLDYFSVQSGSNDIATAAVKLACGEEVKAEAANGNGPVDAVYQAINRITEYNVELVKYSLTAKGHGKDALGQVDIVANYNGRRFHGVGLATDIVESSAKAMVHVLNNIWRAAEVEKELQRKAQHNENNKETV | – | – | Activity with hydroxy pyruvate [3, 4]: 0.022 µmol/min/mg
LiLeuA: candidate synthase LeuA/CimA, Leptospira interogans, GenBank AAN49401 (protein, UniProt Q72RL9 1-501, looked up) 2-isopropylmalate synthase: MDLKDYVRIFDTTLRDGEQCPGAAMTENEKLEIASQLATMKVDIIEAGFPVSSPVQFQAVERIARETEGPMIAALARAMKADIEAASKALQPAKKRRIHTFIASSPIHMKYKLGKEPKEVLKMAVEAVTLCRQFVDDVEFSPEDATRSEPEFLRELCEAVIAAGATTINIPDTVGYTTPAEYGGLFKFLLSNVRGAEKIIFSAHCHNDLGLATANSLAAVQNGARQIECTINGIGERAGNTAMEEVVMAMRTRKDTFGIQTQIKTEEIARASYLVKTITGMLVQPNKAIVGANAFAHESGIHQDGVIKHRETYEIMKPETVGLSSNRMVLGRHSGRAGFKDRIVKLGFSPQVEELEAAYQRFLEIADRKKEIYDEDIRALFSEEARKSTGDRFQLEGFTVSTGTKSTPTAGVRILIDGHVREESATGDGPVDAIYKAIQKTTGMDPEVSRLVISPVTEGQDAMAEASVTLEYKGDRVVGKGSSTDIIEACSRAYISALNRL | – | – | Activity with hydroxy pyruvate [3, 4]: 0.045 µmol/min/mg
ScLys20: candidate synthase lys20, Saccharomyces cerevisiae, GenBank CAA58264 (protein, UniProt P48570 1-428, looked up) Homocitrate synthase, …: MTAAKPNPYAAKPGDYLSNVNNFQLIDSTLREGEQFANAFFDTEKKIEIARALDDFGVDYIELTSPVASEQSRKDCEAICKLGLKAKILTHIRCHMDDAKVAVETGVDGVDVVIGTSKFLRQYSHGKDMNYIAKSAVEVIEFVKSKGIEIRFSSEDSFRSDLVDLLNIYKTVDKIGVNRVGIADTVGCANPRQVYELIRTLKSVVSCDIECHFHNDTGCAIANAYTALEGGARLIDVSVLGIGERNGITPLGGLMARMIVAAPDYVKSKYKLHKIRDIENLVADAVEVNIPFNNPITGFCAFTHKAGIHAKAILANPSTYEILDPHDFGMKRYIHFANRLTGWNAIKARVDQLNLNLTDDQIKEVTAKIKKLGDVRSLNIDDVDSIIKNFHAEVSTPQVLSAKKNKKNDSDVPELATIPAAKRTKPSA | – | – | Activity with hydroxy pyruvate [3, 4]: 0.095 µmol/min/mg
SpLys4mt1: Lys4 mutant D123N, Schizosaccharomyces pombe (protein, UniProt Q9Y823 1-418, looked up, variant D123N) MSVSEANGTETIKPPMNGNPYGPNPSDFLSRVNNFSIIESTLREGEQFANAFFDTEKKIQIAKALDNFGVDYIELTSPVASEQSRQDCEAICKLGLKCKILTHIRCHMDDARVAVETGVDGVNVVIGTSQYLRKYSHGKDMTYIIDSATEVINFVKSKGIEVRFSSEDSFRSDLVDLLSLYKAVDKIGVNRVGIADTVGCATPRQVYDLIRTLRGVVSCDIECHFHNDTGMAIANAYCALEAGATHIDTSILGIGERNGITPLGALLARMYVTDREYITHKYKLNQLRELENLVADAVEVQIPFNNYITGMCAFTHKAGIHAKAILANPSTYEILKPEDFGMSRYVHVGSRLTGWNAIKSRAEQLNLHLTDAQAKELTVRIKKLADVRTLAMDDVDRVLREYHADLSDADRITKEASA | – | – | Activity with hydroxy pyruvate [3, 5]: 0.004
SpLys4mt2: Lys4 mutant D123N, V125F, Schizosaccharomyces pombe (protein, UniProt Q9Y823 1-418, looked up, variant D123N V125F) MSVSEANGTETIKPPMNGNPYGPNPSDFLSRVNNFSIIESTLREGEQFANAFFDTEKKIQIAKALDNFGVDYIELTSPVASEQSRQDCEAICKLGLKCKILTHIRCHMDDARVAVETGVDGVNVFIGTSQYLRKYSHGKDMTYIIDSATEVINFVKSKGIEVRFSSEDSFRSDLVDLLSLYKAVDKIGVNRVGIADTVGCATPRQVYDLIRTLRGVVSCDIECHFHNDTGMAIANAYCALEAGATHIDTSILGIGERNGITPLGALLARMYVTDREYITHKYKLNQLRELENLVADAVEVQIPFNNYITGMCAFTHKAGIHAKAILANPSTYEILKPEDFGMSRYVHVGSRLTGWNAIKSRAEQLNLHLTDAQAKELTVRIKKLADVRTLAMDDVDRVLREYHADLSDADRITKEASA | – | – | Activity with hydroxy pyruvate [3, 5]: 0.009
